Values joined by “and” are separate entries in the source; they are usually repeats but may differ in a detail not shown here. Equal values may be shown once.
Legend:
[1] = Seven-day repeat-dose pharmacokinetic study (study LOT-A), TU BID; type: in vivo, hypogonadal men; conditions: for Baseline-corrected Cavg / Tmax: serum T
Experimental: The probability model was based on the pharmacokinetic results obtained from the hypogonadal patient population that participated in the two multi-dose TU treatments in study LOT-A. As noted previously, 29 hypogonadal males participated in the study, 28 of them completed Treatment Period 1 (300 mg T, as TU, BID) and 24 of them completed Treatment Period 3 (200 mg T, as TU, BID).
Formulation B was studied for its acute tolerability and steady-state serum pharmacokinetic profile at two doses administered twice-daily to hypogonadal men. The study was designed as an open-label, repeat dose, cross-over, pharmacokinetic study (with food effect examined in one arm).
Twenty nine (29) hypogonadal men were enrolled after giving written informed consent, 24 of which completed the study. Each subject who completed the study received a regimen of Formulation B as follows: […]
1. 7 daily doses of 600 mg T as TU BID (300 mg/dose), i.e., 3 capsules/dose 2. 8 daily doses of 400 mg T as TU BID (200 mg/dose)
Doses were administered as capsules to subjects 30 minutes after initiation of meals (breakfast and dinner), except for Day 8, when the morning dose was administered fasting.

[2] = Optimal sampling time: pooled steady-state serum T data of LOT-AA and LOT-BB, 200 mg T BID as TU; type: in vivo, hypogonadal men
Experimental: An investigation was conducted to identify a single optimal sampling time for monitoring the responsiveness of hypogonadal male patients subjects to chronic BID dosing of T using a SEDDS formulation of TU. Concentration data and derived pharmacokinetic parameters for 41 subjects from two studies (LOT-AA and LOT-BB) where subjects received 200 mg BID of T, as TU, for at least seven days were used in this investigation. Correlation and contingency table approaches were used in the investigation.
Concentration data and pharmacokinetic parameters from hypogonadal male subjects that participated in study LOT-AA and study LOT-BB were combined into a single data set. From study LOT-AA, only the information from Day 7 of Treatment 3 (8 days of treatment with 200 mg BID of T, as TU) was used. Study LOT-AA contributed data from 26 subjects treated for 7 days, and study LOT-BBBB contributed data from 15 subjects treated for 28 days with 200 mg BID of T, as TU. Combining of the data from these two groups of subjects is supported by the finding from study LOT-BBBB that T steady-state is reached in 5-7 days.
The sample collection times for these two studies both spanned a 12-hour window, but not all sample collection times were common to both studies. LOT-AA used sample collection times of 0, 1, 2, 4, 8 and 12 hours; LOT-BBBB used sample collection times of 0, 1.5, 3, 4, 5, 6, 8 and 12 hours. The current analysis used the superset of the combined set of collection times (0, 1, 1.5, 2, 3, 4, 5, 6, 8 and 12 hours). Concentration values that were missing for a subject in either of the data sets at a particular sample collection time were estimated by linear interpolation, using the existing nearest neighbor concentration values for that subject, i.e., interpolation of missing data was subject-specific.

[3] = LOT-AA subjects, estimated by linear interpolation
[4] = LOT-BB subjects, estimated by linear interpolation

For `CCCCCCCCCCC(=O)O[C@H]1CC[C@H]2[C@@H]3CCC4=CC(=O)CC[C@]4(C)[C@H]3CC[C@]12C` [TU, testosterone undecanoate], which “Decrease in serum T exposures (Cmax and AUC)” value ([1]; fasting conditions vs meal) is on record?
The value was “greater than 50%”.

What about the “DHT concentrations as percent of T concentrations” value ([1]; in vivo) of the same compound?
The value was 11-34%.

What about the “Pre-dose steady-state estradiol concentrations” value ([1]; in vivo) of the same compound?
Its value is 20 to 30 pg/mL.

And the “Mean baseline T concentration (endogenous T production)” value (from here on “Mean baseline T concentration”) ([1]; prior to Treatment Period 2, after washout)?
Its value is 152 ng/dL.

And the “Mean baseline T concentration” value ([1]; prior to Treatment Period 3, after washout)?
Its value is 139 ng/dL.

What about the “Mean baseline T concentration” value ([1]; prior to Treatment Period 4, after washout) of the same compound?
Its value is 145 ng/dL.

And the “Baseline-corrected Cavg” value ([1]; 200 mg BID)?
Its value is 379 ± 255.

What about the “Baseline-corrected Cavg” value ([1]; 300 mg BID) of the same compound?
The value was 586 ± 330.

What about the Tmax ([1]; 300 mg BID, AM dose) of the same compound?
Its Tmax is 4.5 ± 2.1 h.

And the Tmax ([1]; 300 mg BID, PM dose)?
The Tmax was 17.9 ± 2.6 h.

What about the “Subjects with serum T Cavg in the eugonadal range over 24 hours” value ([1]; simulated 24-hour profile from 12-hour data, 200 mg T (as TU) BID, fed) of the same compound?
The value was 77%.

And the “T concentration 3 hr, individual subjects” value [2, 3]?
Its value is 777 ng/dL and 785 ng/dL and 590 ng/dL and 433 ng/dL and 984 ng/dL and 1030 ng/dL and 1345 ng/dL and 936 ng/dL and 164 ng/dL and 183 ng/dL and 193 ng/dL and 353 ng/dL and 844 ng/dL and 700 ng/dL and 411 ng/dL and 891 ng/dL and 438 ng/dL and 271 ng/dL and 243 ng/dL and 160 ng/dL and 415 ng/dL and 308 ng/dL and 1270 ng/dL and 918 ng/dL and 837 ng/dL and 546 ng/dL.

And the “T concentration 5 hr, individual subjects” value [2, 3]?
Its value is 978 ng/dL and 778 ng/dL and 686 ng/dL and 595 ng/dL and 865 ng/dL and 847 ng/dL and 1289 ng/dL and 886 ng/dL and 209 ng/dL and 248 ng/dL and 324 ng/dL and 311 ng/dL and 1065 ng/dL and 788 ng/dL and 418 ng/dL and 1012 ng/dL and 579 ng/dL and 427 ng/dL and 450 ng/dL and 205 ng/dL and 380 ng/dL and 503 ng/dL and 1533 ng/dL and 740 ng/dL and 768 ng/dL and 969 ng/dL.

What about the “T concentration 6 hr, individual subjects” value [2, 3] of the same compound?
The value was 856 ng/dL and 606 ng/dL and 540 ng/dL and 590 ng/dL and 690 ng/dL and 653 ng/dL and 1048 ng/dL and 703 ng/dL and 232 ng/dL and 248 ng/dL and 423 ng/dL and 314 ng/dL and 789 ng/dL and 648 ng/dL and 415 ng/dL and 1145 ng/dL and 503 ng/dL and 539 ng/dL and 622 ng/dL and 216 ng/dL and 367 ng/dL and 639 ng/dL and 1296 ng/dL and 597 ng/dL and 588 ng/dL and 1283 ng/dL.

What about the “T concentration […], individual subjects” value [2, 3] of the same compound?
The value was 371 ng/dL and 435 ng/dL and 297 ng/dL and 272 ng/dL and 632 ng/dL and 595 ng/dL and 845 ng/dL and 802 ng/dL and 162 ng/dL and 87 ng/dL and 150 ng/dL and 427 ng/dL and 214 ng/dL and 312 ng/dL and 454 ng/dL and 1081 ng/dL and 267 ng/dL and 241 ng/dL and 204 ng/dL and 116 ng/dL and 492 ng/dL and 237 ng/dL and 757 ng/dL and 654 ng/dL and 457 ng/dL and 403 ng/dL.

And the “T concentration 1 hr, individual subjects” value ([2]; LOT-AA subjects, observed)?
Its value is 287 ng/dL and 251 ng/dL and 246 ng/dL and 280 ng/dL and 335 ng/dL and 170 ng/dL and 530 ng/dL and 801 ng/dL and 183 ng/dL and 57 ng/dL and 140 ng/dL and 456 ng/dL and 80 ng/dL and 153 ng/dL and 506 ng/dL and 1260 ng/dL and 314 ng/dL and 256 ng/dL and 199 ng/dL and 105 ng/dL and 547 ng/dL and 225 ng/dL and 744 ng/dL and 354 ng/dL and 187 ng/dL and 368 ng/dL.

What about the “T concentration 2 hr, individual subjects” value ([2]; LOT-AA subjects, observed) of the same compound?
Its value is 454 ng/dL and 619 ng/dL and 347 ng/dL and 264 ng/dL and 928 ng/dL and 1020 ng/dL and 1160 ng/dL and 802 ng/dL and 140 ng/dL and 116 ng/dL and 159 ng/dL and 397 ng/dL and 348 ng/dL and 471 ng/dL and 402 ng/dL and 902 ng/dL and 219 ng/dL and 226 ng/dL and 208 ng/dL and 126 ng/dL and 437 ng/dL (2×) and 248 ng/dL and 770 ng/dL and 953 ng/dL and 726 ng/dL.

And the “T concentration 1 hr, individual subjects” value [2, 4]?
Its value is 545 ng/dL and 531 ng/dL and 279 ng/dL (2×) and 92 ng/dL and 152 ng/dL and 161 ng/dL and 234 ng/dL and 446 ng/dL and 869 ng/dL and 248 ng/dL and 365 ng/dL and 127 ng/dL and 233 ng/dL and 271 ng/dL.

And the “T concentration 2 hr, individual subjects” value [2, 4]?
Its value is 506 ng/dL and 725 ng/dL and 490 ng/dL and 149 ng/dL and 168 ng/dL and 394 ng/dL and 281 ng/dL and 812 ng/dL and 770 ng/dL and 461 ng/dL and 274 ng/dL and 166 ng/dL and 350 ng/dL and 346 ng/dL and 349 ng/dL.

What about the “T concentration 3 hr, individual subjects” value ([2]; LOT-BB subjects, observed) of the same compound?
Its value is 425 ng/dL and 778 ng/dL and 723 ng/dL and 243 ng/dL and 241 ng/dL and 873 ng/dL and 360 ng/dL and 1440 ng/dL and 684 ng/dL and 908 ng/dL and 179 ng/dL and 259 ng/dL and 553 ng/dL and 461 ng/dL and 445 ng/dL.

And the “T concentration 5 hr, individual subjects” value ([2]; LOT-BB subjects, observed)?
The value was 486 ng/dL and 1020 ng/dL and 332 ng/dL and 125 ng/dL and 1230 ng/dL and 714 ng/dL and 1270 ng/dL and 1690 ng/dL and 514 ng/dL and 999 ng/dL and 214 ng/dL and 458 ng/dL and 1330 ng/dL and 289 ng/dL and 507 ng/dL.

And the “T concentration 6 hr, individual subjects” value ([2]; LOT-BB subjects, observed)?
Its value is 671 ng/dL and 1660 ng/dL and 292 ng/dL and 238 ng/dL and 828 ng/dL and 773 ng/dL and 972 ng/dL and 1340 ng/dL and 593 ng/dL and 538 ng/dL and 620 ng/dL and 351 ng/dL and 1420 ng/dL and 320 ng/dL and 441 ng/dL.

And the “T concentration […], individual subjects” value ([2]; LOT-BB subjects, observed)?
The value was 547 ng/dL and 699 ng/dL and 374 ng/dL and 102 ng/dL and 132 ng/dL and 155 ng/dL and 242 ng/dL and 498 ng/dL and 813 ng/dL and 237 ng/dL and 321 ng/dL and 120 ng/dL and 249 ng/dL and 288 ng/dL and 301 ng/dL.

And the “C(0), Max” value ([2]; serum T, N 41)?
The value was 1600 ng/dL.

What about the “C(0), Mean” value ([2]; serum T, N 41) of the same compound?
Its value is 363 ng/dL.

What about the “C(0), Median” value ([2]; serum T, N 41) of the same compound?
The value was 244 ng/dL.

And the “C(0), Min” value ([2]; serum T, N 41)?
The value was 61.0 ng/dL.

What about the “C(1), Max” value ([2]; serum T, N 41) of the same compound?
Its value is 1260 ng/dL.

What about the “C(1), Mean” value ([2]; serum T, N 41) of the same compound?
The value was 338 ng/dL.

And the “C(1), Median” value ([2]; serum T, N 41)?
The value was 271 ng/dL.

What about the “C(1), Min” value ([2]; serum T, N 41) of the same compound?
The value was 57.3 ng/dL.

What about the “C(1.5), Max” value ([2]; serum T, N 41) of the same compound?
The value was 1081 ng/dL.

What about the “C(1.5), Mean” value ([2]; serum T, N 41) of the same compound?
Its value is 391 ng/dL.

And the “C(1.5), Median” value ([2]; serum T, N 41)?
The value was 312 ng/dL.

What about the “C(1.5), Min” value ([2]; serum T, N 41) of the same compound?
The value was 86.6 ng/dL.

What about the “C(2), Max” value ([2]; serum T, N 41) of the same compound?
The value was 1160 ng/dL.

And the “C(2), Mean” value ([2]; serum T, N 41)?
The value was 466 ng/dL.

And the “C(2), Median” value ([2]; serum T, N 41)?
Its value is 397 ng/dL.
